# Reference: BindingDB's records for doi:10.3109/14756366.2013.823957 (National Tsing Hua University, 2014)
# Target: Cathepsin S (Homo sapiens, UniProt P25774)
# Assay: Cathepsin Activity Assay
# Details: pH 6.5; 25 °C
# Procedure: A microplate-based screening procedure was used to study the effect of inhibition of re-Cat S, re-Cat L and re-Cat K on several compounds. The assays were performed in quadruplicates at 25 °C in a buffer containing 50 mM MES, pH 6.5, 2.5 mM EDTA and 1 mM DTT for re-Cat S, or 100 mM NaOAc, pH 5.5, 1 mM DTT and 2 mM EDTA for re-Cat L, or 50 mM MES, pH 5.5, 5 mM DTT and 2.5 mM EDTA for re-Cat K. Each of tested compounds at 100 nM was incubated with 50 nM re-Cat S, 31.25 pM re-Cat L or 10 nM re-Cat K at 37 °C for 10 min before initiating the reaction with the addition of 5 μM relevant substrate (Z-Phe-Arg-AMC for Cat L and Cat K, and Z-Val-Val-Arg-AMC for Cat S), respectively [Ward et al., J. Med. Chem., 45:5471-82]. Reactions in microplates were kept at 37 °C for another 30 min and then to collect the fluorescent signals from each well in microplates. E64 and 1% DMSO were applied as positive and solvent control, respectively. Fluorimetric assays were performed at 37 °C on a Perkin Elmer LS55 fluorescence spectrophotometer (Waltham, MA) with excitation at 370 nm and emission at 460 nm wavelengths. The inhibitory ability of a tested compound was determined by decreased fluorescence compared to DMSO control.
# Chain of Cathepsin S (P25774 whole entry): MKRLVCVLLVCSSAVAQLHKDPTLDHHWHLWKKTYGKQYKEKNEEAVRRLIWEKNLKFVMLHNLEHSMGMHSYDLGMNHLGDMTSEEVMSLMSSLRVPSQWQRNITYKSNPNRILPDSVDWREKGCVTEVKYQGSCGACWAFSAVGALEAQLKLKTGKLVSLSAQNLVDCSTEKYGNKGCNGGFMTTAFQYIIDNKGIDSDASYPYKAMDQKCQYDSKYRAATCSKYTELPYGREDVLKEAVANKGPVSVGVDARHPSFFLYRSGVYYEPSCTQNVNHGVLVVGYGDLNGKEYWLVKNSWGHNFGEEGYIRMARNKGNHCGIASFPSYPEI
row,SMILES,IC50 [nM]
1,"CCOC(=O)CNC(=O)C(=O)C(COCc1ccccc1)NC(=O)C(CC1CCCCC1)NC(=O)N1CCOCC1 (stereo not drawn) [Cathepsin S inhibitor alpha-ketoamide, 6a]",4.4
2,"CCOC(=O)CNC(=O)C(=O)C(COCc1ccccc1)NC(=O)C(CC1CCCCC1)NC(=O)c1cccc([N+](=O)[O-])c1 (stereo not drawn) [Cathepsin S inhibitor alpha-ketoamide, 6b]",2
3,"CCOC(=O)CNC(=O)C(=O)C(COCc1ccccc1)NC(=O)C(CC1CCCCC1)NC(=O)c1cc(OC)ccc1[N+](=O)[O-] (stereo not drawn) [Cathepsin S inhibitor alpha-ketoamide, 6e]",3.1
4,"CCOC(=O)CNC(=O)C(=O)C(COCc1ccccc1)NC(=O)C(CC1CCCCC1)NC(=O)c1ccc(C(=O)OC)c(NC(=O)OC(C)(C)C)c1 (stereo not drawn) [Cathepsin S inhibitor alpha-ketoamide, 6n]",49.2
5,"CCOC(=O)CNC(=O)C(=O)C(COCc1ccccc1)NC(=O)C(CC1CCCCC1)NC(=O)c1ccc(C(=O)OC)c(N)c1 (stereo not drawn) [Cathepsin S inhibitor alpha-ketoamide, 6p]",5.8
6,"CCOC(=O)CNC(=O)C(=O)C(COCc1ccccc1)NC(=O)C(CC1CCCCC1)NC(=O)c1cccc2c1C(=O)c1ccccc1-2 (stereo not drawn) [Cathepsin S inhibitor alpha-ketoamide, 6r]",8.8
7,"CC(C)(C)CC(C)(C)NC(=O)C(=O)C(COCc1ccccc1)NC(=O)C(CC1CCCCC1)NC(=O)N1CCOCC1 (stereo not drawn) [Cathepsin S inhibitor alpha-ketoamide, 6w]",3.1
